In patent publication US20130224730A1, “PEPTIDE LIGANDS” (ARIZONA BOARD OF REGENTS ACTING FOR AND ON BEHALF OF …, priority 2009, published 2013):

How the values were obtained:
[1] = test system: G2.4 Minerva nVLP (norovirus-like particles, VP1 capsid protein); assay: Peptide affinity column capture and elution of nVLP from tobacco cell lysate; conditions: nVLP1 immobilized on a bead
Excerpt: Coupling to Support: All 6 candidate peptides were synthesized by solid-phase peptide synthesis using standard FMOC chemistry and subsequently cleaved off the resin. The candidate peptides were attached to an iodoacetyl functionalized affinity matrix at a specifically determined level. The benefits of coupling our peptides to the affinity matrix as opposed to direct synthesis onto the bead are that it allows for greater control of the levels of peptide that are immobilized. The suitability of a ligand for affinity chromatography depends on its ability to bind the target molecule specifically and reversibly with an adequate affinity. […]
To test the recovery yield of the column, cell lysate containing ˜500 μg of VP1 (as measured by SDS-PAGE) was loaded on the column and ˜470 μg of VP1 was recovered for a 94% yield. The dynamic binding capacity of the chromatography media was determined and is defined as the amount of target protein that the media binds under actual flow conditions before significant breakthrough of unbound protein occurs. […]
Briefly, a large volume of VP1 containing lysate was prepared and its absorbance at 280 nm measured. This solution was continually loaded onto the column and the flow through measured for absorbance. The point at which breakthrough occurred, defined as 10% absorbance of the lysate, was used to calculate the binding capacity. […]

[2] = test system: G1.1 nVLP; assay: Peptide affinity column binding and elution of G1.1 nVLP produced in insect cells; set-up: species or system norovirus; conditions: eluted under same conditions as G2.4 nVLP
Excerpt: Noroviruses bind to histo-blood group antigens (HBGAs), which are carbohydrates that contain structurally related saccharide moieties, wherein type 1 and type 2 carbohydrate core structures constitute antigenically distinct variants. Several, but not all, noroviruses specifically bind to HBGAs, which are believed to function as receptors for docking and entry into the cell during infection. As previously mentioned, peptide nVLP1 was selected to specifically bind to G2.4 Minerva nVLPs. […] We therefore have identified at ligand that has cross reactivity to G1 and G2 capsid proteins in VLPs, with homology between genogroups I and II around 50%.

Sequence: LLYNKTFPHGRWSPSYPGSC (Peptide Ligand) [nVLP1, 20 mer peptide ligand for norovirus-like particles, optimal ligand]
- capture of nVLP from cell lysate [1]: able to capture nVLP from cell lysate
- binding to G1.1 nVLP (cross reactivity G1/G2) [2]: shown to bind G1.1 nVLP
